Measured values as given in patent US10583206B2, “Radioactive probe for detecting hydrogen sulfide” (KYUNGPOOK NATIONAL UNIVERSITY INDUSTRY-ACADEMIC COOPERATION …, priority 2015, dated 2020).

Legend:
[1] = Retention/excretion after injection into sites on the backs of rats (optical imaging); assay type: in vivo; conditions: about 0.48 mCi injected into sites on the backs of rats
Procedure: Next, at the beginning of the second experiment, about 0.48 mCi of ^64Cu(II) ion, ^64CuS, ^64Cu-labeled complex compound according to Example 1, and ^64Cu-labeled complex compound according to Example 16 were injected into four sites on the backs of the same rats, respectively. Immediately, optical images were taken and shown in a lower left image of FIG. 4. A photograph taken after 4 hours was shown in a lower right image of FIG. 4.

[2] = Test of hydrogen sulfide selectivity (overall statements); assay type: physicochemical
Procedure: (§1) In addition to hydrogen sulfide, many different anions, radicals, etc. exist in the body. Therefore, to examine selective reactivity of the ^64Cu-labeled complex compound according to the present disclosure for sulfide ions, the following experiment was performed.
(§2) About 45 μCi-55 μCi of the ^64Cu-labeled complex compound (250 μL of triple distilled water) was mixed with 100 μM of various anion solutions (250 μL of triple distilled water) including biothiol, and stirred at 37° C. for 15 minutes.
(§3) Formation of copper sulfide (^64CuS) was quantified by using a radio-TLC scanner.
(§4) Various biothiol or salt solutions were prepared by dissolving the compounds in triple distilled water.
(§5) In Table, concentrations of all biothiols and other competitive materials are 100 μM. Further, specific concentrations of biothiols, anions, and oxidants used in Table are as follows: [L-Cys (1 mM); L-Hcys (10 mM); GSH (10 mM); DL-dithiothretitol (DTT, 100 μM); L-ascorbic acid (L-AsA, 10 mM); 2-mercaptoethanol (2-ME, 10 mM); NaCl (10 mm); KI (1 mM); Na2S2O3 (1 mM); Na2S2O5 (1 mM); NaOAc (1 mM); H2O2 ([…]); NaClO4 (100 μM); NaHCO3 (100 μM); NaNO2 ([…]); NaN3 (100 μM); ATB 337 (100 μM); diallyl trisulphide (100 μM)].

[3] = Hydrogen sulfide selectivity test: decomplexation by DAT (diallyl trisulphide); assay type: physicochemical; conditions: DAT = diallyl trisulphide (100 μM); 37° C. for 15 minutes
Procedure: as §1, §2, §3, §4, §5

[4] = Hydrogen sulfide selectivity test: decomplexation by NaN3; assay type: physicochemical; conditions: NaN3 (100 μM); 37° C. for 15 minutes
Procedure: as §1, §2, §3, §4, §5

[5] = Hydrogen sulfide selectivity test: decomplexation by Na2S2O3; assay type: physicochemical; conditions: 100 μM or (1 mM), 37° C. for 15 minutes
Procedure: as §1, §2, §3, §4, §5

[6] = Hydrogen sulfide selectivity test: decomplexation by ME; assay type: physicochemical; conditions: 2-mercaptoethanol; 100 μM or (2-ME, 10 mM); 37° C. for 15 minutes
Procedure: as §1, §2, §3, §4, §5

[7] = Hydrogen sulfide selectivity test: decomplexation by Hcys; assay type: physicochemical; conditions: 100 μM or L-Hcys (10 mM), 37° C. for 15 minutes
Procedure: as §1, §2, §3, §4, §5

[8] = Test of hydrogen sulfide detection sensitivity (% decomplexation with NaHS, radio-TLC); assay type: physicochemical; conditions: 37° C. for 15 minutes
Procedure: To measure hydrogen sulfide detection sensitivity of the ^64Cu-labeled complex compound according to the present disclosure, the following experiment was performed.
About 45 μCi-55 μCi of ^64Cu-labeled complex compound (250 μL of triple distilled water) was mixed with various concentrations of NaHS solution (250 µL of triple distilled water), and stirred at 37° C. for 15 minutes (a total volume used in the reaction was equally 500 μL). After completion of the reaction, the resulting products were strongly stirred to mix appropriately.
Formation of copper sulfide (^64CuS) was confirmed by quantification of % decomplexation by using a radio-TLC scanner, and results are shown in the following Tables 2 and 3.

[9] = Hydrogen sulfide selectivity test: decomplexation by NaHCO3; assay type: physicochemical; conditions: NaHCO3 (100 μM); 37° C. for 15 minutes
Procedure: as §1, §2, §3, §4, §5

[10] = Hydrogen sulfide selectivity test: decomplexation by NaCl; assay type: physicochemical; conditions: 100 μM or NaCl (10 mm), 37° C. for 15 minutes
Procedure: as §1, §2, §3, §4, §5

[11] = Hydrogen sulfide selectivity test: decomplexation by NaClO4; assay type: physicochemical; conditions: NaClO4 (100 μM); 37° C. for 15 minutes
Procedure: as §1, §2, §3, §4, §5

Paw inflammation model = assay type: in vivo, Balb/c or ICR mice; conditions: for selective uptake in inflamed sites: optical imaging and nuclear medicine imaging
Procedure: (1) Paw Pain Inflammation Model
A small amount of CFA (complete Freund's adjuvant) or formalin was injected into only one paw (right) of the hind paws of Balb/c or ICR mice to establish inflammation models. 1 day after injection of the inflammation inducer, the mice were used in imaging or other in vivo experiments.
It is a known fact that inflamed sites show high concentrations of hydrogen sulfide.
Nuclear medicine imaging was measured by using an Inveon PET/CT system of Siemens Healthcare, and optical imaging was measured by using IVIS spectrum CT equipment. Cherenkov radiation emitted from ^64Cu was measured by using a highly sensitive CCD (charge-coupled device) camera.
Imaging was measured for 1 minute to 5 minutes, and a radiation dose was about 50 μCi to 2000 μCi, and photographs were variously taken as needed, such as immediately after first injection, at 1 hour, 4 hours, and 24 hours later.

[12] = Hydrogen sulfide selectivity test: decomplexation by H2O2; assay type: physicochemical; conditions: H2O2 (100 µM); 37° C. for 15 minutes
Procedure: as §1, §2, §3, §4, §5

[13] = Hydrogen sulfide selectivity test: decomplexation by Kl; assay type: physicochemical; conditions: 100 μM or KI (1 mM), 37° C. for 15 minutes
Procedure: as §1, §2, §3, §4, §5

[14] = Hydrogen sulfide selectivity test: decomplexation by Cys; assay type: physicochemical; conditions: 100 μM or L-Cys (1 mM), 37° C. for 15 minutes
Procedure: as §1, §2, §3, §4, §5

[15] = Hydrogen sulfide selectivity test: decomplexation by GSH; assay type: physicochemical; conditions: 100 μM or GSH (10 mM), 37° C. for 15 minutes
Procedure: as §1, §2, §3, §4, §5

[16] = Hydrogen sulfide selectivity test: decomplexation by NaNO2; assay type: physicochemical; conditions: NaNO2 (100 µM); 37° C. for 15 minutes
Procedure: as §1, §2, §3, §4, §5

[17] = Hydrogen sulfide selectivity test: decomplexation by ATB 337; assay type: physicochemical; conditions: ATB 337 (100 μM); 37° C. for 15 minutes
Procedure: as §1, §2, §3, §4, §5

[18] = Hydrogen sulfide selectivity test: decomplexation by DTT; assay type: physicochemical; conditions: DL-dithiothretitol (DTT, 100 μM); 37° C. for 15 minutes
Procedure: as §1, §2, §3, §4, §5

[19] = Hydrogen sulfide selectivity test: decomplexation by Na2S2O5; assay type: physicochemical; conditions: 100 μM or (1 mM), 37° C. for 15 minutes
Procedure: as §1, §2, §3, §4, §5

[20] = Hydrogen sulfide selectivity test: decomplexation by L-AsA; assay type: physicochemical; conditions: L-ascorbic acid; 100 μM or (L-AsA, 10 mM); 37° C. for 15 minutes
Procedure: as §1, §2, §3, §4, §5

[21] = Test of hydrogen sulfide detection over time (^64CuS formation, radio-TLC); assay type: physicochemical; set-up: unit not given here; conditions: 100 μM NaHS, 37° C.
Procedure: To examine reactivity of the ^64Cu-labeled complex compound according to the present disclosure over time, the following experiment was performed.
A detailed experimental method is as follows.
About 45 μCi-50 μCi of ^64Cu-labeled complex compound (250 μL of triple distilled water) was mixed with 100 μM of NaHS solution ([…] of triple distilled water), and stirred at 37° C. for 15 minutes. Formation of copper sulfide (^64CuS) was quantified by using a radio-TLC scanner.

[22] = Hydrogen sulfide selectivity test: decomplexation by NaOAc; assay type: physicochemical; conditions: 100 μM or (1 mM), 37° C. for 15 minutes
Procedure: as §1, §2, §3, §4, §5

[23] = tested on: colon carcinoma cell CT-26; assay: Cellular uptake test under various NaHS concentrations (gamma counter); assay type: cell-based; conditions: CT-26 cells
Procedure: Cellular drug uptake is an important prognostic factor in the diagnosis of diseases. Therefore, to examine cellular uptake of the ^64Cu-labeled complex compounds according to the present disclosure, experiments for measuring changes in the cellular uptake under various concentrations of hydrogen sulfide were performed.
A colon carcinoma cell CT-26 was seeded in each plate at a density of 5×10^6, and then 10 μCi-300 μCi of ^64Cu-labeled complex compound of Examples 1, 7 or 9 according to the present disclosure was treated thereto, followed by incubation for 10 minutes. The cells were washed with PBS, and then 0 μM, 1 μM, or 50 μM of NaHS solution was added thereto, followed by incubation for 5 minutes. Thereafter, the cells were washed with PBS, and then cells were removed from the plate by adding trypsin and EDTA, followed by centrifugation. Supernatants were discarded and radiation of remaining cells was measured by using a gamma counter.

Structure (SMILES) | selective reactivity with hydrogen sulfide versus biothiol compounds or anions, in words [2] | Decomplexation [%] [3] [%] | Decomplexation [%] [4] [%] | Decomplexation [%] [5] [%] | Decomplexation [%] [6] [%] | Decomplexation [%] [7] [%] | % decomplexation ([8]; NaHS 0 μM) [%] | % decomplexation ([8]; NaHS 1 μM) [%] | % decomplexation ([8]; NaHS 10 μM) [%] | % decomplexation ([8]; NaHS 15 μM) [%] | % decomplexation ([8]; NaHS 20 μM) [%] | % decomplexation ([8]; NaHS 50 μM) [%] | % decomplexation ([8]; NaHS 100 μM) [%] | Decomplexation [%] [9] [%] | Decomplexation [%] [10] [%] | Decomplexation [%] [11] [%] | selective uptake in inflamed sites (Paw inflammation model) | Decomplexation [%] [12] [%] | Decomplexation [%] [13] [%] | Decomplexation [%] [14] [%] | also measured
[Cu+2].[S-2] [^64CuS, copper sulfide (^64CuS)] |  |  |  |  |  |  |  |  |  |  |  |  |  |  |  |  |  |  |  |  | excretion from / retention in the body, in words ([1]; images immediately and after 4 hours): remains for a long time in the body
[Cu+2] [^64Cu(II) ion, reference compound] | reacted with various biothiol compounds or anions |  |  |  |  |  |  |  |  |  |  |  |  |  |  |  |  |  |  |  | retention time relative to ^64CuS [1]: about half of ^64CuS
C1C[N]2CCC[N]3CCC[N](C1)[64Cu]23 [Example 21] | did not selectively react with hydrogen sulfide | 49 ± 2 | 0.5 | 3 ± 1 | 2 ± 2 | 30 ± 5 | 0 | 0 | 6.2 | 10 | 58 | 63 | 100 | 0.9 | 0.4 ± 0.2 | 2 ± 1 | selective uptake | 3 | 0.3 | 9 ± 3 | Decomplexation [%] [15]: 33%; Decomplexation [%] [16]: 0.5%; Decomplexation [%] [17]: 6 ± 2%; Decomplexation [%] [18]: 25%; Decomplexation [%] [19]: 4 ± 2%; Decomplexation [%] [20]: 4 ± 2%; Formation of copper sulfide (^64CuS) over time ([21]; 10 sec): 52; Formation of copper sulfide (^64CuS) over time ([21]; 30 sec): 72; Formation of copper sulfide (^64CuS) over time ([21]; 60 sec): 100; Formation of copper sulfide (^64CuS) over time ([21]; 5 min): 100; Formation of copper sulfide (^64CuS) over time ([21]; 10 min): 100; Formation of copper sulfide (^64CuS) over time ([21]; 15 min): 100; Decomplexation [%] [22]: 1%
CC1=NC(C)CNC(C)(C)CC(C)=NC(C)CNC(C)(C)C1.[64Cu+2] (stereo not shown) [Example 7] |  |  |  |  |  |  |  |  |  |  |  |  |  |  |  |  |  |  |  |  | uptake in inflamed paw versus opposite paw (Paw inflammation model; optical and nuclear medicine imaging performed 2 hours later): higher uptakes; Uptake (radiation of remaining cells, gamma counter) ([23]; NaHS Concentration 0 μM): 20000; Uptake (radiation of remaining cells, gamma counter) ([23]; NaHS Concentration 1 μM): 21000; Uptake (radiation of remaining cells, gamma counter) ([23]; NaHS Concentration 50 μM): 23000
C1COCCNCCOCCN1.[64Cu+2] [Example 3] | did not selectively react with hydrogen sulfide | 100 | 0.6 | 19 ± 5 | 16 | 27 ± 3 | 0 | 0 | 3 | 6 | 79 | 100 | 100 | 0.3 | 0.3 | 0.4 | selective uptake | 0.4 | 0.1 | 0.4 | Decomplexation [%] [15]: 48%; Decomplexation [%] [16]: 0.5%; Decomplexation [%] [17]: 3 ± 1%; Decomplexation [%] [18]: 45 ± 2%; Decomplexation [%] [19]: 5%; Decomplexation [%] [20]: 15%; Formation of copper sulfide (^64CuS) over time ([21]; 10 sec): 62; Formation of copper sulfide (^64CuS) over time ([21]; 30 sec): 70; Formation of copper sulfide (^64CuS) over time ([21]; 60 sec): 75; Formation of copper sulfide (^64CuS) over time ([21]; 5 min): 100; Formation of copper sulfide (^64CuS) over time ([21]; 10 min): 100; Formation of copper sulfide (^64CuS) over time ([21]; 15 min): 100; Decomplexation [%] [22]: 15%
